From the OligoGym collection
HELM strings list units from the 5' end as sugar, base in round brackets, then linkage (d deoxyribose, r ribose, m 2'-O-methyl, p phosphodiester). Strings are as the collection lists them, not checked against the first reports. ss, as = sense and antisense strand; [lna] = locked nucleic acid (LNA); [hna] = hexitol nucleic acid; [fl2r] = 2'-fluoro

Details: siRNA
Also: test system not given here.

Substance	target mRNA knockdown
RNA1{r(C)p.r(U)p.r(U)p.r(A)p.r(C)p.r(G)p.r(C)p.r(U)p.r(G)p.r(A)p.r(G)p.r(U)p.r(A)p.r(C)p.r(U)p.r(U)p.r(C)p.r(G)p.r(A)p.r(T)p.r(T)}|RNA2{[lna](T)p.r(C)p.r(G)p.r(A)p.r(A)p.r(G)p.[lna](T)p.r(A)p.r(C)p.[lna](T)p.r(C)p.r(A)p.r(G)p.r(C)p.r(G)p.[lna](T)p.r(A)p.r(A)p.r(G)p.[lna](T)p.[lna](T)}$$$RNA1{StrandType:ss}|RNA2{StrandType:as}$	19%
RNA1{r(G)p.[hna](A)p.r(C)p.r(G)p.r(U)p.r(A)p.r(A)p.[hna](A)p.r(C)p.r(G)p.r(G)p.r(C)p.r(C)p.[hna](A)p.r(C)p.r(A)p.[hna](A)p.r(G)p.r(U)p.r(U)p.r(C)}|RNA2{r(A)p.r(C)p.[lna](T)p.r(U)p.r(G)p.[lna](T)p.r(G)p.r(G)p.r(C)p.r(C)p.r(G)p.r(U)p.r(U)p.[lna](T)p.r(A)p.r(C)p.r(G)p.[lna](T)p.r(C)p.[lna](G)p.[lna](C)}$$$RNA1{StrandType:ss}|RNA2{StrandType:as}$	3.6%
RNA1{m(A)p.r(U)p.m(A)p.r(C)p.m(U)p.r(U)p.m(G)p.r(G)p.m(C)p.r(G)p.m(G)p.r(G)p.m(C)p.r(U)p.m(C)p.r(U)p.m(U)p.r(U)p.m(C)p.r(T)p.r(T)}|RNA2{r(G)p.r(A)p.r(A)p.r(A)p.r(G)p.r(A)p.r(G)p.r(C)p.r(C)p.r(C)p.r(G)p.r(C)p.r(C)p.r(A)p.r(A)p.r(G)p.r(U)p.r(A)p.r(U)p.r(T)p.r(T)}$$$RNA1{StrandType:ss}|RNA2{StrandType:as}$	19%
RNA1{[fl2r](C)p.r(C)p.[fl2r](C)p.r(U)p.[fl2r](C)p.r(C)p.[fl2r](C)p.r(C)p.[fl2r](U)p.r(G)p.[fl2r](U)p.r(C)p.[fl2r](C)p.r(C)p.[fl2r](C)p.r(G)p.[fl2r](C)p.r(U)p.[fl2r](U)p.r(T)p.r(T)}|RNA2{[fl2r](A)p.[fl2r](A)p.r(G)p.r(C)p.r(G)p.r(G)p.r(G)p.r(G)p.[fl2r](A)p.r(C)p.[fl2r](A)p.r(G)p.r(G)p.r(G)p.r(G)p.[fl2r](A)p.r(G)p.r(G)p.r(G)p.r(T)p.r(T)}$$$RNA1{StrandType:ss}|RNA2{StrandType:as}$	41%
RNA1{m(U)p.r(C)p.m(C)p.r(U)p.m(A)p.r(G)p.m(C)p.r(U)p.m(G)p.r(U)p.m(C)p.r(U)p.m(U)p.r(G)p.m(U)p.r(C)p.m(C)p.r(C)p.m(U)p.r(T)p.r(T)}|RNA2{r(A)p.r(G)p.r(G)p.r(G)p.r(A)p.r(C)p.r(A)p.r(A)p.r(G)p.r(A)p.r(C)p.r(A)p.r(G)p.r(C)p.r(U)p.r(A)p.r(G)p.r(G)p.r(A)p.r(T)p.r(T)}$$$RNA1{StrandType:ss}|RNA2{StrandType:as}$	27%
RNA1{[lna](G)p.r(C)p.r(A)p.r(G)p.r(C)p.r(A)p.r(C)p.r(G)p.r(A)p.r(C)p.r(U)p.r(U)p.r(C)p.r(U)p.r(U)p.r(C)p.r(A)p.r(A)p.r(G)p.r(U)p.r(U)}|RNA2{r(C)p.r(U)p.r(U)p.r(G)p.r(A)p.r(A)p.r(G)p.r(A)p.r(A)p.r(G)p.r(U)p.r(C)p.r(G)p.r(U)p.r(G)p.r(C)p.r(U)p.r(G)p.r(C)p.r(U)p.r(U)}$$$RNA1{StrandType:ss}|RNA2{StrandType:as}$	73.2%
RNA1{r(G)p.m(C)p.r(A)p.r(G)p.r(C)p.r(A)p.r(C)p.r(G)p.r(A)p.r(C)p.r(U)p.r(U)p.r(C)p.r(U)p.r(U)p.r(C)p.r(A)p.r(A)p.r(G)p.r(U)p.r(U)}|RNA2{r(U)p.[fl2r](U)p.r(C)p.r(G)p.r(U)p.r(C)p.r(G)p.r(U)p.r(G)p.r(C)p.r(U)p.r(G)p.r(A)p.r(A)p.r(G)p.r(A)p.r(A)p.r(G)p.r(U)p.r(U)p.r(C)}$$$RNA1{StrandType:ss}|RNA2{StrandType:as}$	77.2%
RNA1{r(C)p.r(C)p.r(G)p.r(A)p.r(A)p.r(G)p.r(A)p.r(C)p.r(G)p.r(A)p.r(A)p.r(G)p.r(C)p.r(U)p.r(A)p.r(U)p.r(G)p.r(A)p.r(A)p.r(T)p.r(T)}|RNA2{r(U)p.r(U)p.r(C)p.r(A)p.[fl2r](U)p.r(A)p.r(G)p.r(C)p.r(U)p.r(U)p.r(C)p.r(G)p.r(U)p.r(C)p.r(U)p.r(U)p.r(C)p.r(G)p.r(G)p.r(T)p.r(T)}$$$RNA1{StrandType:ss}|RNA2{StrandType:as}$	47%
RNA1{r(G)p.[hna](A)p.r(C)p.r(G)p.r(U)p.r(A)p.r(A)p.[hna](A)p.r(C)p.r(G)p.r(G)p.r(C)p.r(C)p.[hna](A)p.r(C)p.r(A)p.[hna](A)p.r(G)p.r(U)p.r(U)p.r(C)}|RNA2{r(A)p.m(C)p.r(U)p.r(U)p.r(G)p.r(U)p.r(G)p.r(G)p.r(C)p.r(C)p.r(G)p.r(U)p.r(U)p.r(U)p.r(A)p.r(C)p.r(G)p.r(U)p.r(C)p.r(G)p.r(C)}$$$RNA1{StrandType:ss}|RNA2{StrandType:as}$	54.2%
RNA1{m(C)p.r(A)p.r(G)p.m(C)p.r(A)p.r(A)p.r(A)p.m(C)p.m(C)p.r(A)p.m(C)p.r(G)p.r(A)p.m(U)p.m(C)p.r(A)p.r(A)p.m(U)p.r(A)p.r(T)p.r(T)}|RNA2{m(U)p.r(A)p.m(U)p.m(U)p.r(G)p.r(A)p.m(U)p.m(C)p.r(G)p.m(U)p.r(G)p.r(G)p.m(U)p.m(U)p.m(U)p.r(G)p.m(C)p.m(U)p.r(G)p.r(T)p.r(T)}$$$RNA1{StrandType:ss}|RNA2{StrandType:as}$	5%
RNA1{m(C)p.r(G)p.m(G)p.r(A)p.m(U)p.r(C)p.m(U)p.r(A)p.m(C)p.r(A)p.m(C)p.r(C)p.m(U)p.r(U)p.m(C)p.r(A)p.m(A)p.r(G)p.m(A)p.r(T)p.r(T)}|RNA2{m(U)p.r(C)p.m(U)p.m(U)p.r(G)p.r(A)p.r(A)p.r(G)p.r(G)p.m(U)p.r(G)p.m(U)p.r(A)p.r(G)p.r(A)p.m(U)p.r(C)p.r(C)p.r(G)p.r(T)p.r(T)}$$$RNA1{StrandType:ss}|RNA2{StrandType:as}$	29%
RNA1{r(C)p.r(U)p.r(U)p.r(A)p.r(C)p.r(G)p.r(C)p.r(U)p.r(G)p.r(A)p.r(G)p.r(U)p.r(A)p.r(C)p.r(U)p.r(U)p.r(C)p.r(G)p.r(A)p.r(T)p.r(T)}|RNA2{r(T)p.r(C)p.r(G)p.r(A)p.r(A)p.r(G)p.r(U)p.r(A)p.r(C)p.r(U)p.r(C)p.r(A)p.r(G)p.r(C)p.r(G)p.[lna](T)p.r(A)p.r(A)p.r(G)p.[lna](T)p.[lna](T)}$$$RNA1{StrandType:ss}|RNA2{StrandType:as}$	83%
RNA1{m(U)p.r(A)p.m(A)p.r(A)p.m(C)p.r(U)p.m(U)p.r(U)p.m(G)p.r(G)p.m(G)p.r(G)p.m(A)p.r(A)p.m(G)p.r(G)p.m(G)p.r(A)p.m(G)p.r(T)p.r(T)}|RNA2{r(C)p.r(U)p.r(C)p.r(C)p.r(C)p.r(U)p.r(U)p.r(C)p.r(C)p.r(C)p.r(C)p.r(A)p.r(A)p.r(A)p.r(G)p.r(U)p.r(U)p.r(U)p.r(A)p.r(T)p.r(T)}$$$RNA1{StrandType:ss}|RNA2{StrandType:as}$	34%
RNA1{r(G)p.r(A)p.r(A)p.r(A)p.r(A)p.r(C)p.r(G)p.r(C)p.r(U)p.m(U)p.r(G)p.m(U)p.r(A)p.r(A)p.r(A)p.r(G)p.r(C)p.r(C)p.r(G)p.r(T)p.r(T)}|RNA2{r(C)p.r(G)p.r(G)p.r(C)p.r(U)p.r(U)p.m(U)p.r(A)p.m(C)p.r(A)p.r(A)p.r(G)p.r(C)p.r(G)p.r(U)p.r(U)p.r(U)p.r(U)p.r(C)p.r(T)p.r(T)}$$$RNA1{StrandType:ss}|RNA2{StrandType:as}$	54%
RNA1{r(A)p.r(G)p.r(A)p.r(A)p.r(A)p.r(A)p.r(G)p.m(C)p.r(A)p.r(G)p.r(C)p.r(G)p.r(A)p.m(U)p.r(A)p.r(C)p.r(G)p.r(C)p.r(U)p.r(T)p.r(T)}|RNA2{r(A)p.r(G)p.r(C)p.r(G)p.r(U)p.r(A)p.r(U)p.r(C)p.r(G)p.r(C)p.m(U)p.r(G)p.r(C)p.r(U)p.r(U)p.r(U)p.r(U)p.r(C)p.r(U)p.r(T)p.r(T)}$$$RNA1{StrandType:ss}|RNA2{StrandType:as}$	68%
RNA1{[hna](G)p.[hna](A)p.[hna](C)p.r(G)p.r(U)p.r(A)p.r(A)p.r(A)p.r(C)p.r(G)p.r(G)p.r(C)p.r(C)p.r(A)p.r(C)p.r(A)p.r(A)p.[hna](G)p.[hna](U)p.[hna](U)p.d(T)}|RNA2{[fl2r](A)p.m(C)p.[fl2r](U)p.m(U)p.[fl2r](G)p.m(U)p.[fl2r](G)p.m(G)p.[fl2r](C)p.m(C)p.[fl2r](G)p.m(U)p.[fl2r](U)p.m(U)p.[fl2r](A)p.m(C)p.[fl2r](G)p.m(U)p.[fl2r](C)p.m(G)p.[fl2r](C)}$$$RNA1{StrandType:ss}|RNA2{StrandType:as}$	81.8%
RNA1{r(A)p.m(C)p.r(A)p.r(G)p.r(A)p.r(A)p.r(A)p.r(G)p.r(A)p.r(G)p.r(U)p.r(U)p.r(C)p.r(G)p.r(A)p.r(G)p.r(G)p.r(A)p.r(G)p.r(T)p.r(T)}|RNA2{r(C)p.r(U)p.r(C)p.r(C)p.r(U)p.r(C)p.r(G)p.r(A)p.r(A)p.r(C)p.r(U)p.r(C)p.r(U)p.r(U)p.r(U)p.r(C)p.m(U)p.r(G)p.r(U)p.r(T)p.r(T)}$$$RNA1{StrandType:ss}|RNA2{StrandType:as}$	64%
RNA1{r(G)p.r(C)p.[fl2r](U)p.r(G)p.r(A)p.r(A)p.r(C)p.[fl2r](U)p.r(A)p.r(G)p.r(U)p.r(C)p.r(G)p.r(A)p.r(A)p.r(A)p.r(G)p.r(A)p.r(A)p.r(T)p.r(T)}|RNA2{r(U)p.r(U)p.r(C)p.r(U)p.r(U)p.r(U)p.r(C)p.r(G)p.r(A)p.r(C)p.[fl2r](U)p.r(A)p.r(G)p.r(U)p.r(U)p.[fl2r](C)p.r(A)p.r(G)p.r(C)p.r(T)p.r(T)}$$$RNA1{StrandType:ss}|RNA2{StrandType:as}$	78%
RNA1{r(A)p.r(G)p.r(C)p.r(C)p.r(U)p.r(C)p.r(C)p.r(A)p.r(A)p.[fl2r](A)p.r(C)p.r(U)p.r(C)p.r(C)p.r(U)p.r(A)p.r(G)p.[fl2r](C)p.r(U)p.r(T)p.r(T)}|RNA2{r(A)p.r(G)p.r(C)p.[fl2r](U)p.r(A)p.r(G)p.r(G)p.r(A)p.r(G)p.r(U)p.r(U)p.r(U)p.r(G)p.r(G)p.r(A)p.r(G)p.r(G)p.r(C)p.r(U)p.r(T)p.r(T)}$$$RNA1{StrandType:ss}|RNA2{StrandType:as}$	69%
RNA1{m(A)p.r(A)p.m(C)p.r(A)p.m(G)p.r(U)p.m(C)p.r(C)p.m(U)p.r(U)p.r(A)p.m(G)p.r(C)p.m(U)p.r(A)p.r(C)p.m(G)p.r(C)p.r(U)p.r(T)p.r(T)}|RNA2{r(A)p.r(G)p.r(C)p.r(G)p.r(U)p.r(A)p.r(G)p.r(C)p.r(U)p.r(A)p.r(A)p.r(G)p.r(G)p.r(A)p.r(C)p.r(U)p.r(G)p.r(U)p.r(U)p.r(T)p.r(T)}$$$RNA1{StrandType:ss}|RNA2{StrandType:as}$	35%
